# Read-outs that look alike come from different tables or passages of the source.
# How the values were obtained:
# trypsin = assay: Tryptic digestion of Aβ after incubation with Zn2+; type: biochemical; conditions: increasing zinc concentrations
# Protocol: Tryptic Digestion of Aβ-Aβ1-40 (13.9 μg) was incubated with Zn^2+ ([…] in blocking buffer, 1 h, 37° C.) and then digested with trypsin (12 ng, 3 h, 37° C.). The reaction was stopped by adding SDS sample buffer containing phenylmethylsulfonyl fluoride (1 mM), boiling the samples (5 min), and applying the samples to Tris/Tricine gel electrophoresis and transfer. The blot was washed with EDTA, Coomassie-stained, incubated with ^65Zn^2+, individual bands were excised, assayed for ^65Zn^2+ binding, and N-terminal sequenced to confirm the identity of the digestion products. The effects of Zn^2+ (up to 100 μM in TBS) on the activity of trypsin, itself, were assayed by assay of Z-Arg-amido-4-methylcoumarin (Sigma) fluorescent cleavage product and determined to be negligible.
# (FIG. 4a) depicts a blot of tryptic digests of Aβ (13.9 μg) after incubation with increasing concentrations of zinc (lane labels, in micromolar), stained by Coomassie Blue. […] The migration of the low molecular size markers (STD) are indicated (in kilodaltons) on the right. (FIG. 4b) depicts ^65Zn^2+ binding to Aβ tryptic digestion products. The blot in 4a was incubated with ^65Zn^2+, the visible bands excised, and the bound counts for each band determined.
# [1] = Aβ incubation with column components, UV absorption before and after; type: physicochemical
# Protocol: To determine the part of the column onto which Aβ was precipitating, Aβ solutions were incubated with various column components and assayed by UV absorption before and after incubation. Replicating the chromatography experimental conditions, Aβ (100 μM in equilibration buffer) was incubated for 1 h in plastic reaction vessels with or without the presence of Sephadex.
# [2] = Zinc-induced tinctorial amyloid formation (Congo Red, polarized light); type: physicochemical
# Protocol: FIGS. 8a and 8b are photographs showing zinc-induced tinctorial amyloid formation. […] The particle diameter is 40μ. […] The experiment was repeated with EDTA (50 μM) substituted for Zn^2+ and yielded no visible material.
# The particle diameter is 40μ. […] The experiment was repeated with EDTA (50 μM) substituted for Zn^2+ and yielded no visible material.
# [3] = 65Zn2+ binding to immobilized peptide (dot-blot, Scatchard competition analysis)
# Protocol: ^65Zn^2+ Binding Studies—Dissolved peptides (1.2 nMol, unless other wise stated) were dot-blotted onto polyvinylidene difluoride membrane (0.2-μm pore size; Pierce Chemical Co.), washed twice with chelating buffer (200 μl×100 mM NaCl, 20 mM Tris-HCl, 1 mM EDTA, pH 7.4), then five times with blocking buffer (200 μl×100 mM NaCl, 20 mM Tris-HCl, 1 mM MnCl2, pH 7.4), and then incubated (60 min, 20° C.) with ^65Zn (unless otherwise stated 130,000 cpm, […] ^65ZnCl2 in 200 μl of blocking buffer±competing metal ion chloride). The dot-blot was then washed with blocking buffer (5×200 μl), the dot excised, placed in a test tube, and assayed by γ-counting (11% efficiency). The equilibration volume for stoichiometry estimates was regarded as 6×200 μl. The 214 nm UV absorbance of the unbound flow-through was assayed to determine the total amount of peptide remaining bound onto the membrane. […] To alter the pH, the ^65Zn incubation was carried out in the presence of 100 mM buffer: MOPS (pH 6.5-7.0), MES (pH 5.0-6.0), acetate (pH 3.5-4.5). The dot-blot apparatus was washed with detergent and EDTA (50 mM) then rinsed and siliconized between use.
# Aliquots of Aβ were incubated (60 min) with ^65Zn^2+ in the presence of varying concentrations of unlabeled Zn^2+ (0.01-50 μM total). Values shown are means±S.D., n≧3. […] (FIG. 1b) depicts specificity of the Zn^2+ binding site for various metals. Aβ was incubated (60 min) with ^65 Zn^2+ (157 nM, 138,000 cpm) and competing unlabeled metal ions (50 μM total). […] Percent binding of total counts ^65Zn^2+/min added is corrected for the amounts (in nanomoles) of peptides adhering to the membrane. […] 157 nM ^65Zn (138,000 cpm) is used in this experiment to probe immobilized peptide (1.6 nmol).
# [4] = 20 μM in PBS, cited from earlier work
# [5] = not given; remark: listed apart in the source
# [6] = Aβ binding to kaolin (aluminum silicate); type: physicochemical
# Protocol: Aβ Binding to Kaolin (Aluminum Silicate)—Kaolin suspension was prepared in high performance liquid chromatography water (Fisher), defined, and adjusted to 50% (v/v). Aβ (40 μg) was incubated in siliconized reaction vessels with either kaolin or Sephadex G50 SF (10 μl×50% (v/v)) in Cu^2+, Zn^2+, or EDTA (100 μl in TBS, 5 min, room temperature). The suspension was then pelleted (1500×g, 3 min) and the supernatant removed and diluted 20-fold with water to bring the UV absorbance readings into the linear range. Samples were assayed at 214 nm before and after incubation with kaolin or Sephadex.
# (FIG. 3a) depicts concentration (by 214 nm absorbance) of Aβ remaining in supernatant after incubation with 10 mg of G50 Sephadex. (FIG. 3b) depicts concentration (by 214 nm absorbance) of Aβ remaining in supernatant after incubation with 10 mg of kaolin, expressed as percent of the starting absorbance.
# [7] = 65Zn2+ binding to immobilized peptide (dot-blot, Scatchard competition analysis); conditions: 1 min
# [8] = centrifugation studies; cited from earlier work
# [9] = neutral pH; cited from earlier work
substance,measurement,setting,value
"Aβ1-40: synthetic peptide representing secreted human Aβ1-40, 4.3 kDa, main component of Alzheimer cerebral amyloid",peptide recovered when retained aggregates are washed with EDTA,">0.65 aggregates, EDTA 50 μM",22%
same,proportion of particles >0.1μ,"EDTA, peptide 1.6 μM",47%
same,proportion of particles >0.22μ,"EDTA, peptide 1.6 μM",40%
same,proportion of particles >0.65μ,"EDTA, peptide 1.6 μM",32%
same,increase of proportion of >0.1μ particles following incubation with Zn^2+,Zn^2+ 25 μM vs EDTA,50%
same,increase of proportion of >0.22μ particles following incubation with Zn^2+,Zn^2+ 25 μM vs EDTA,55%
same,proportion of particles >0.65μ,"Zn^2+ 25 μM, peptide 1.6 μM",82%
same,additional ≦0.22μ peptide resolubilized by EDTA treatment,compared with >0.65 aggregates,7%
same,effect of zinc on rate of tryptic digestion of the peptide,trypsin,is inhibited by the presence of zinc
same,binding to Sephadex,"[1]; Aβ 100 μM, 1 h",< 1%
same,loss to siliconized plastic,"[1]; Aβ 100 μM, 1 h",< 1%
same,adsorption in borosilicate glass test tubes,[1]; without zinc,20%
same,adsorption in borosilicate glass test tubes,[1]; zinc 25 μM,35%
same,Zn^2+ concentration inducing amyloid by tinctorial criteria,[2]; Congo Red,3 µM
same,particle diameter of zinc-induced precipitate,"[2]; peptide 25 μM, Zn^2+ 25 μM, 30 minutes, 37° C.",40 μ
same,time at which ^65Zn^2+ binding plateaued,[3],1 h
same,^65Zn^2+ binding at lower pH,[3]; pH 6.0,30 % of Bmax
same,time stable in solution,[4]; pH 7.4,10 days
same,time to half-maximal aggregation,[4]; seeded with Aβ1-42 (2 μM),4 to 5 days
same,>0.2μ particle assembly following incubation with EDTA,[5]; EDTA,10-20%
same,near-instantaneous aggregation into >0.2μ particles,"[5]; EDTA buffer, peptide 1.6 μM",20%
same,peptide aggregated into >0.2μ particles,"[5]; EDTA, higher peptide concentrations",≈ 15%
same,peptide aggregated into >0.2μ particles,"[5]; EDTA, peptide 0.8 μM",no detectable aggregation
same,peptide aggregated into >0.2μ particles,"[5]; Zn^2+ 25 μM, 30 minutes, various peptide concentrations",up to 80%
same,peptide aggregated into >0.2μ particles,"[5]; Zn^2+ 25 μM, peptide 0.8 μM",> 70%
same,particle assembly rate of second phase,"[5]; Zn^2+ 25 μM, peptide 1.6 μM",3.2 nM/min
same,time to steady state of the second phase,"[5]; Zn^2+ 25 μM, peptide 1.6 μM",≤ 2 min
same,half-maximal assembly rate of initial phase,"[5]; Zn^2+ 25 μM, peptide 1.6 μM, pH 7.4",≈ 0.4 μM/min
same,time until available peptide is exhausted,[5]; at second-phase rate,within five hours
same,"peptide that would aggregate into >0.2μ particles, extrapolated","[5]; curve of FIG. 6A extrapolated to 0.6 nM peptide, Zn^2+ 25 μM",25%
same,reversibility of binding to kaolin,[6]; 10 mM EDTA,not reversible
same,precipitation of the peptide by kaolin,"[6]; Aβ 0.4 mg/ml, kaolin 5% v/v, 5 min, room temperature",up to 87%
same,^65Zn^2+ binding at 1 min,[7],60 % Bmax
"^125I-human Aβ1-40: human Aβ1-40 iodinated on the tyrosine residue at position 10, tracer",Zn^2+ concentration required to precipitate,[8],1 mM
"insulin: insulin, literature comparison for zinc binding",stoichiometric ratio Zn^2+:insulin in excess of which the peptide precipitates,[9],> 0.33
